Test results: US20250230193A1, “CYCLIC COMPOUND HAVING SELECTIVE KRAS INHIBITORY EFFECT ON HRAS AND NRAS” (CHUGAI SEIYAKU KABUSHIKI KAISHA, priority 2022, published 2025)
Where a SMILES comes first, the peptide text is derived from it. Bridges are numbered along the chain shown (N, C = ends). [ ]: non-standard residue; d: D form. The star is where a group is joined. hPhe(3-Cl-4-CF3) = N[C@@H](CCc1ccc(C(F)(F)F)c(Cl)c1)C(=O)O; NPrPhe(4-CF3) = CCCN[C@@H](Cc1ccc(C(F)(F)F)cc1)C(=O)O; NEtPhe(4-CF3) = CCN[C@@H](Cc1ccc(C(F)(F)F)cc1)C(=O)O; NMeGly(cPent) = CN[C@H](C(=O)O)C1CCCC1; NMeD = CN[C@@H](CC(=O)O)C(=O)O; NMeL = CN[C@@H](CC(C)C)C(=O)O; NMeAbu = CC[C@H](NC)C(=O)O; Morpholide = C1CN(*)CCO1; NMeA = CN[C@@H](C)C(=O)O; Ac5c = NC1(C(=O)O)CCCC1; Aze = O=C(O)[C@@H]1CCN1; Ac3c = NC1(C(=O)O)CC1; Sar = CNCC(=O)O

Key:
[1] = molecular target: GDP-bound NRAS wild-type protein (Homo sapiens, UniProt P01111); assay: Binding to NRAS by surface plasmon resonance (SPR), Single Cycle Kinetics; conditions: SPR; for NRAS/KRAS (ratio of KD value with respect to NRAS to KD value with respect to KRAS): GDP-bound NRAS wild-type vs GDP-bound KRAS wild-type
[2] = molecular target: GDP-bound HRAS wild-type protein (Homo sapiens, UniProt P01112); assay: Binding to HRAS by surface plasmon resonance (SPR), Single Cycle Kinetics; conditions: SPR; for HRAS/KRAS (ratio of KD value with respect to HRAS to KD value with respect to KRAS): GDP-bound HRAS wild-type vs GDP-bound KRAS wild-type
Chain of GDP-bound HRAS wild-type protein (P01112 whole entry): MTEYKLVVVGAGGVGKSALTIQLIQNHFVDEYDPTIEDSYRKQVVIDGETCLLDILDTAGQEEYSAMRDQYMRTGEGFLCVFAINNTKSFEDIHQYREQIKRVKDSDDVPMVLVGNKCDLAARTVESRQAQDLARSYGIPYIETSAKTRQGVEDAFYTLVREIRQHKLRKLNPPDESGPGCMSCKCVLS

Chain of GDP-bound NRAS wild-type protein (P01111 whole entry): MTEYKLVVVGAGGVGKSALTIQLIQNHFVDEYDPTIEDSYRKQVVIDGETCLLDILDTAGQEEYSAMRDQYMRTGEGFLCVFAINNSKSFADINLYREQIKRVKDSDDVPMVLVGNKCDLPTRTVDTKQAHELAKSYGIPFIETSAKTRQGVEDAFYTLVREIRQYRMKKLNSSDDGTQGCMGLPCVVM

For `C#CC[C@H]1C(=O)N[C@@H]([C@@H](C)CC)C(=O)N(C)CC(=O)N(C)[C@H]2C/C=C\CCN(C2=O)[C@@H](Cc2ccc(C(F)(F)F)cc2)C(=O)N(C)CC(=O)N[C@@H](CCc2cc(F)c(C(F)(F)F)c(F)c2)C(=O)N2C[C@H](OCC)C[C@H]2C(=O)NC2(CC(C)(C)C2)C(=O)N(C)[C@@H](C2CCCC2)C(=O)N(C)[C@H](C(=O)N(C)CC)CC(=O)N1C` [PP2073], the “NRAS/KRAS (ratio of KD value with respect to NRAS to KD value with respect to KRAS)” value [1] was “A (a compound having 10 or more and less than 20 is denoted as A)” and the “HRAS/KRAS (ratio of KD value with respect to HRAS to KD value with respect to KRAS)” value [2] was “A (a compound having 10 or more and less than 20 is denoted as A)”.

`CC[C@H](C)[C@@H]1NC(=O)[C@H](CC(C)C)N(C)C(=O)C[C@@H](C(=O)N2CCCCC2)N(C)C(=O)[C@H](C2CCCC2)N(C)C(=O)C2(CCCC2)NC(=O)[C@@H]2CCCN2C(=O)[C@H](CCc2cc(F)c(C(F)(F)F)c(F)c2)NC(=O)CN(C)C(=O)[C@H](Cc2ccc(C(F)(F)F)cc2)N2CCCC[C@@H](C2=O)N(C)C(=O)CN(C)C1=O` [PP0572] was tested, and the “NRAS/KRAS (ratio of KD value with respect to GDP-bound NRAS wild-type protein to KD value with respect to KRAS)” value [1] was “B (a compound having 3 or more and less than 10 is denoted as B)” and the “HRAS/KRAS (ratio of KD value with respect to GDP-bound HRAS wild-type protein to KD value with respect to KRAS)” value [2] was “B (a compound having 3 or more and less than 10 is denoted as B)”.

With `CC[C@H](C)[C@@H]1NC(=O)[C@H](CC(C)C)N(C)C(=O)C[C@@H](C(=O)N2CCOCC2)N(C)C(=O)[C@H](C2CCCC2)N(C)C(=O)C2(CC2)NC(=O)[C@@H]2CCCN2C(=O)[C@H](CCc2ccc(C(F)(F)F)c(Cl)c2)NC(=O)CN(C)C(=O)[C@H](Cc2ccc(C(F)(F)F)cc2)N(CC)C(=O)[C@@H]2CCN2C(=O)[C@H](C)N(C)C1=O` [PP0220] ([NMeL]I[NMeA][Aze][NEtPhe(4-CF3)][Sar][hPhe(3-Cl-4-CF3)]P[Ac3c][NMeGly(cPent)][NMeD]-Morpholide; lactam N-11) the “NRAS/KRAS (ratio of KD for GDP-bound NRAS wild-type to KD for KRAS)” value [1] was “C (A compound having a KD ratio of 0.1 or more and less than 3 is denoted as C)” and the “HRAS/KRAS (ratio of KD for GDP-bound HRAS wild-type to KD for KRAS)” value [2] was “C (A compound having a KD ratio of 0.1 or more and less than 3 is denoted as C)”.

For `CCCOC[C@H]1C(=O)N[C@@H]([C@@H](C)OCC)C(=O)N(C)CC(=O)N(C)[C@H]2C/C=C\CCN(C2=O)[C@@H](Cc2ccc(C)cc2)C(=O)N(C)CC(=O)N[C@@H](CCc2ccc(C(F)(F)F)c(OC)c2)C(=O)N2C[C@@H](C)C[C@H]2C(=O)NC2(CC(C)(C)C2)C(=O)N(C)[C@@H](C2CCCC2)C(=O)N(C)[C@H](C(=O)N(C)CC)CC(=O)N1C` [PP2423], the “NRAS/KRAS (ratio of KD value with respect to NRAS to KD value with respect to KRAS)” value [1] was “A (a compound having 10 or more and less than 20 is denoted as A)” and the “HRAS/KRAS (ratio of KD value with respect to HRAS to KD value with respect to KRAS)” value [2] was “A (a compound having 10 or more and less than 20 is denoted as A)”.

For `CCCN1C(=O)[C@@H]2CCN2C(=O)[C@H](C)N(C)C(=O)[C@H]([C@@H](C)CC)NC(=O)[C@H](CC)N(C)C(=O)C[C@@H](C(=O)N2CCOCC2)N(C)C(=O)[C@H](C2CCCC2)N(C)C(=O)C2(CCCC2)NC(=O)[C@@H]2CCCN2C(=O)[C@H](CCc2ccc(C(F)(F)F)c(Cl)c2)NC(=O)CN(C)C(=O)[C@@H]1Cc1ccc(C(F)(F)F)cc1` [PP0194] ([NMeAbu]I[NMeA][Aze][NPrPhe(4-CF3)][Sar][hPhe(3-Cl-4-CF3)]P[Ac5c][NMeGly(cPent)][NMeD]-Morpholide; lactam N-11), the “NRAS/KRAS (ratio of KD for GDP-bound NRAS wild-type to KD for KRAS)” value [1] was “C (A compound having a KD ratio of 0.1 or more and less than 3 is denoted as C)” and the “HRAS/KRAS (ratio of KD for GDP-bound HRAS wild-type to KD for KRAS)” value [2] was “B (a compound having 3 or more and less than 10 is denoted as B)”.

With `CCC[C@H]1C(=O)N[C@@H]([C@@H](C)CC)C(=O)N(C)CC(=O)N(C)[C@H]2C/C=C\CCN(C2=O)[C@@H](Cc2ccc(C)cc2)C(=O)N(C)CC(=O)N[C@@H](CCc2ccc(C(F)(F)F)c(OC)c2)C(=O)N2C[C@H](OCC)C[C@H]2C(=O)N(C)C2(CCC2)C(=O)N(C)[C@@H](C2CCCC2)C(=O)N(C)[C@H](C(=O)N2CCCCC2)CC(=O)N1C` [PP3104, (2S,8S,12R,14S,20S,23S,27S,30S,36S,38Z)-20-cyclopentyl-12-ethoxy-8-[2-[3-methoxy-4-(trifluoromethyl)phenyl]ethyl]-4,16,19,22,26,32,35-heptamethyl-30-[(1S)-1-methylpropyl]-23-(piperidine-1-carbonyl)-27-propyl-2-(p-tolylmethyl)spiro[1,4,7,10,16,19,22,26,29,32,35-undecazatricyclo[34.5.1.0^10,14]dotetracont-38-ene-17,1′-cyclobutane]-3,6,9,15,18,21,25,28,31,34,42-undecone] the “NRAS/KRAS (ratio of KD value with respect to GDP-bound NRAS wild-type protein to KD value with respect to KRAS)” value ([1]; GDP-bound wild-type proteins) was “A (a compound having 10 or more and less than 20 is denoted as A)” and the “HRAS/KRAS (ratio of KD value with respect to GDP-bound HRAS wild-type protein to KD value with respect to KRAS)” value ([2]; GDP-bound wild-type proteins) was “A (a compound having 10 or more and less than 20 is denoted as A)”.

`CCO[C@@H]1C[C@H]2C(=O)NC3(CCC3)C(=O)N(C)[C@@H](C3CCCC3)C(=O)N(C)[C@H](C(=O)N(C)C)CC(=O)N(C)[C@@H](CC)C(=O)N[C@@H]([C@@H](C)CC)C(=O)N(C)CC(=O)N(C)[C@H]3CCCCN(C3=O)[C@@H](Cc3ccc(C(F)(F)F)cc3)C(=O)N(C)CC(=O)N[C@@H](CCc3cc(F)c(C(F)(F)F)c(F)c3)C(=O)N2C1` [PP0693] was tested, and the “NRAS/KRAS (ratio of KD value with respect to GDP-bound NRAS wild-type protein to KD value with respect to KRAS)” value [1] was “C (A compound having a KD ratio of 0.1 or more and less than 3 is denoted as C)” and the “HRAS/KRAS (ratio of KD value with respect to GDP-bound HRAS wild-type protein to KD value with respect to KRAS)” value [2] was “C (A compound having a KD ratio of 0.1 or more and less than 3 is denoted as C)”.
